# Values joined by “and” are separate entries in the source; they are usually repeats but may differ in a detail not shown here. Identical values can stand only once. Like-named read-outs stand apart in the source and are kept apart here. Marks after values point to notes of the source that are not given here.
# Tests used:
# [1] = Antifungal assay, mycelium growth on PDA containing the chemical; conditions: T. versicolor; for Antifungal index (%): Table 1
# [2] = as above
# [3] = as above; conditions: G. trabeum; for Antifungal index (%): Table 1
# [4] = as above; conditions: for Antifungal index: 50 μg/ml
# [5] = MIC and MFC determination on PDA; conditions: L. betulina
# [6] = MIC and MFC determination on PDA; conditions: L. sulphureus
# [7] = Antifungal activity on paper (CNS 2690, TAPPI T487 cm-93); conditions: A. terreus, 14 days
# [8] = as above; conditions: A. niger, 14 days
# [9] = as above; conditions: C. globosum, 14 days
# [10] = L. sulphureus, 100 μg/ml, Table 1
# [11] = L. betulina, 100 μg/ml, Table 1
# [12] = Example 1, FIG. 1(A), read-out: IC50 (concentration that inhibited 50% of the mycelium growth)
# [13] = L. sulphureus, 100 μg/ml, Table 4, mean ± SE (n = 5)
# [14] = L. sulphureus, Table 5, mean ± SE (n = 5), combinations at 1:1 ratio in molarities
# [15] = L. sulphureus, Table 5, mean ± SE (n = 5), combinations at 1:1 ratio in molarities, read-out: IC50
# [16] = L. sulphureus, single compound at 0.17 mM
# [17] = L. betulina, 100 μg/ml, Table 4, mean ± SE (n = 5)
# [18] = L. betulina, Table 5, mean ± SE (n = 5), combinations at 1:1 ratio in molarities
# [19] = L. betulina, Table 5, mean ± SE (n = 5), combinations at 1:1 ratio in molarities, read-out: IC50
compound,measurement,setting,value
"Cc1cc(C(C)(C)C)c(O)c(C(C)(C)C)c1 [BHT, Butylated hydroxyltoluene, reference compound]",Antifungal index (%),[1]; 100 μg/ml,23 ± 2.6%
same,Antifungal index (%),[2]; [10],21 ± 5.6%
same,Antifungal index (%),[3]; 100 μg/ml,0 ± 0%
same,Antifungal index (%),[4]; [11],16 ± 3.4%
"O=CC=Cc1ccccc1 [Cinnamaldehyde, cinnamaldehyde]",Antifungal index (%),[1]; 100 μg/ml,34 ± 2.2%
same,IC50,[1]; [12],1110 µM
same,Antifungal index (%),[2]; [10],100 ± 0%
same,Antifungal index (%),[2]; [13],100% and 100 ± 0.0^a %
same,IC50,"[2]; L. sulphureus, Example 1, FIG. 1(A), read-out: IC50 (concentration that inhibited 50% of the mycelium growth)",170 µM
same,IC90,[2]; [14],530 ± 20 µM
same,IC50,[2]; [15],230 µM
same,Antifungal index,[2]; [16],41%
same,MFC,[5],750 µM
same,MIC,[5],750 µM
same,Antifungal index,"[3]; 50 μg/ml, Example 3, FIG. 2(B)",22%
same,Antifungal index (%),[3]; 100 μg/ml,31 ± 0.7%
same,IC50,[3]; [12],1050 µM
same,MFC,[6],700 µM
same,MIC,[6],700 µM
same,Antifungal index,"[4]; L. betulina, Example 3, FIG. 2(A)",6%
same,Antifungal index (%),[4]; [11],100 ± 0%
same,Antifungal index (%),[4]; [17],100% and 100 ± 0.0^a %
same,IC50,"[4]; L. betulina, Example 1, FIG. 1(A), read-out: IC50 (concentration that inhibited 50% of the mycelium growth)",650 µM
same,IC90,[4]; [18],720 ± 60 µM
same,IC50,[4]; [19],650 µM
"O=C(O)CN(CCN(CC(=O)O)CC(=O)O)CC(=O)O [EDTA, diaminoethanetetraacetic acid]",Antifungal index,"[2]; Laetiporus sulphureus, 50 μg/ml, Example 5",10%
same,Antifungal index,"[4]; Lenzites betulina, Example 5",90%
"C=CCc1ccc(O)c(OC)c1 [Eugenol, eugenol]",Antifungal index (%),[2]; [13],100 ± 0.0^a %
same,Antifungal index (%),"[2]; L. sulphureus, 100 μg/ml, Table 4, mean ± SE (n = 5), listed as eugenol",100%
same,IC90,[2]; [14],520 ± 10 µM
same,IC50,[2]; [15],250 µM
same,Antifungal index,[2]; [16],24%
same,MFC,[5],700 µM
same,MIC,[5],700 µM
same,MFC,[6],650 µM
same,MIC,[6],650 µM
same,Antifungal index (%),[4]; [17],100 ± 0.0^a %
same,Antifungal index (%),"[4]; L. betulina, 100 μg/ml, Table 4, mean ± SE (n = 5), listed as eugenol",100%
same,IC90,[4]; [18],650 ± 50 µM
same,IC50,[4]; [19],370 µM
"CCCC1COC(Cn2cncn2)(c2ccc(Cl)cc2Cl)O1 (stereo not drawn) [Propiconazole, propiconazole]",Antifungal index (%),[1]; 1 μg/ml (propiconazole),92 ± 0.6%
same,Antifungal index (%),"[2]; L. sulphureus, 1 μg/ml (propiconazole), Table 1",100 ± 0%
same,Antifungal index (%),"[2]; L. sulphureus, 1 μg/ml (propiconazole), Table 1, listed as propiconazole",100%
same,Antifungal index (%),"[2]; L. sulphureus, 1 μg/ml (propiconazole), Table 4, mean ± SE (n = 5)",100 ± 0.0^a %
same,Antifungal index (%),"[2]; L. sulphureus, 1 μg/ml (propiconazole), Table 4, mean ± SE (n = 5), listed as propiconazole",completely inhibited
same,Antifungal index (%),[3]; 1 μg/ml (propiconazole),52 ± 3.7%
same,Antifungal index (%),"[4]; L. betulina, 1 μg/ml (propiconazole), Table 1",100 ± 0%
same,Antifungal index (%),"[4]; L. betulina, 1 μg/ml (propiconazole), Table 1, listed as propiconazole",100%
same,Antifungal index (%),"[4]; L. betulina, 1 μg/ml (propiconazole), Table 4, mean ± SE (n = 5)",100 ± 0.0^a %
same,Antifungal index (%),"[4]; L. betulina, 1 μg/ml (propiconazole), Table 4, mean ± SE (n = 5), listed as propiconazole",completely inhibited
"CCCOC(=O)c1cc(O)c(O)c(O)c1 [Propyl gallate, propyl gallate]",Antifungal index (%),[1]; 100 μg/ml,0 ± 0%
same,Antifungal index (%),[2]; [10],0 ± 0%
same,Percent inhibition ratio,[7]; 100 μg/cm^2 on filter paper,0 ± 0%
same,Percent inhibition ratio,[7]; 400 μg/cm^2 on filter paper,0 ± 0%
same,Antifungal index (%),[3]; 100 μg/ml,2 ± 0.6%
same,Percent inhibition ratio,[8]; 100 μg/cm^2 on filter paper,0 ± 0%
same,Percent inhibition ratio,[8]; 400 μg/cm^2 on filter paper,0 ± 0%
same,Percent inhibition ratio,[9]; 100 μg/cm^2 on filter paper,0 ± 0%
same,Percent inhibition ratio,"[9]; 100 μg/cm^2 on filter paper, listed as propyl gallate",did not show any antifungal activity
same,Percent inhibition ratio,[9]; 400 μg/cm^2 on filter paper,100 ± 0%
same,Percent inhibition ratio,"[9]; 400 μg/cm^2 on filter paper, listed as propyl gallate",100%
same,Antifungal index (%),[4]; [11],1 ± 1.9%
"O=c1c(O)c(-c2ccc(O)c(O)c2)oc2cc(O)cc(O)c12 [Quercetin, quercetin]",Antifungal index (%),[2]; [13],0 ± 0.0^c %
same,Antifungal index (%),"[2]; L. sulphureus, 100 μg/ml, Table 4, mean ± SE (n = 5), listed as quercetin",did not express antifungal activities
same,IC90,[2]; [14],> 100000 µM
same,IC50,[2]; [15],64000 ± 250 µM
same,Antifungal index (%),[4]; [17],0 ± 0.0^b %
same,Antifungal index (%),"[4]; L. betulina, 100 μg/ml, Table 4, mean ± SE (n = 5), listed as quercetin",did not express antifungal activities
same,IC90,[4]; [18],> 100000 µM
same,IC50,[4]; [19],> 100000 µM
catechin,Antifungal index (%),[2]; [13],5 ± 1.8^b %
same,Antifungal index (%),"[2]; L. sulphureus, 100 μg/ml, Table 4, mean ± SE (n = 5), listed as catechin",did not express antifungal activities
same,IC90,[2]; [14],80000 ± 140 µM
same,IC50,[2]; [15],40000 ± 120 µM
same,Antifungal index (%),[4]; [17],3 ± 1.5^b %
same,Antifungal index (%),"[4]; L. betulina, 100 μg/ml, Table 4, mean ± SE (n = 5), listed as catechin",did not express antifungal activities
same,IC90,[4]; [18],> 100000 µM
same,IC50,[4]; [19],> 100000 µM
